The nature of one data set: in vitro. As to conditions: mouse. The procedure:
(§1) The antiviral activity of isolated compounds and extracts was evaluated against the murine coronavirus MHV-3. Initially, the viability of L929 (mouse adipose fibroblasts; ATCC CCL-1) cells was assessed using the MTT (3-(4,5-dimethylthiazol-2-yl)-2,5-diphenyltetrazolium bromide (Thermo Fisher Scientific, USA) assay.[11] Cells were cultured at 37 °C and 5% CO2 in Dulbecco’s modified Eagle medium (DMEM; Cultilab, Brazil) supplemented with 5% fetal bovine serum (FBS; Cultilab, Brazil), 100 IU/mL of penicillin (Cellofarm, Brazil), 100 μg/mL of streptomycin (Merck, Germany) and 0.25 μg/mL of amphotericin B (Cultilab, Brazil). Cells were seeded in 96-well microplates (4 × 10^4 cells per well) and added 200 μL of DMEM with 1% de FBS containing the diluted compounds and extracts to be tested (100 to 1.56 μM or 200 to 3.125 μg/mL). Serial dilutions of DMSO were used as a vehicle control. Additionally, a 10% v/v inhibition control of DMSO was used. After 72 h of incubation under the same conditions, media was removed and 100 μL of MTT diluted in DMEM (0.5 mg/mL) were added to each well and incubated for 3 h. Last, media was removed, and 100 μL of DMSO were added to each well to solubilize the formazan crystals. The absorbance was read at 570 nm using a spectrophotometer (Versamax, Molecular Devices, EUA). The percentages of cell viability inhibition were calculated as the ratio between the absorbance of cells treated with the compounds relative to the vehicle control. Linear regression was used to calculate CC50 values, considering only those data for which r^2 > 0.9. The 50% cytotoxic concentration (CC50) is defined as the highest concentration of a specific compound that reduces cell viability by 50%. All conditions were tested in two independent assays in triplicate.

In another data set the test system is MHV-3. Kind of data set: Antiviral MTT assay against MHV-3 in L929 cells (EC50). The format is cell-based, mouse hepatitis virus 3 (murine coronavirus). Conditions: for EC50: Murine coronavirus, MHV-3 in L929 cells, MOI 0.1, MTT, NA: not active. How it is done:
as §1
Here, the same conditions as that used for CC50 were used, with the only difference being the concentrations of the samples (up to 8-fold dilution from the CC50 values for the compounds) diluted in 100 μL and added to 100 μL of viral suspension at a multiplicity of infection (MOI) of 0.1, that is, one viral particle per 10 cells in culture. Ribavirin was used as the positive control. The EC50 value was calculated as the percentage ratio between the absorbance of infected cells treated with the compounds and cells treated only with the vehicle. Last, the selectivity index (SI) was calculated using the ratio between CC50 and EC50. All conditions were tested in two independent assays in triplicate.

A further data set has as its system THP-1 cells. Kind of data set: Cytotoxic MTT assay, THP-1. Conditions: Homo sapiens; THP-1, MTT, 48 h, mean ± SD of two independent experiments. The format is cell-based. How it is done: (§2) The cytotoxicity of compounds was evaluated against the K-562 (chronic myeloid leukemia, ATCC CCL-243) and THP-1 (acute monocytic leukemia, ATCC TIB-202) cell lines. […] For the cytotoxicity assessment, cells were planted in 96-well microplates (1 × 10^4 cells per well) containing RPMI 1640 medium (Roswell Park Memorial Institute, Cultilab, Campinas, SP, Brazil) supplemented with 10% FBS (Cultilab, Campinas, SP, Brazil), 100 U/mL penicillin, 100 μg/mL streptomycin, and 10 mM HEPES, pH 7.4. The cells were incubated in a humidified incubator at 37 °C with 5% CO2 until the assay was performed. […] After 48 h of incubation, 100 μL of MTT salt at a concentration of 0.5 mg/mL was added to each well. The plate was then incubated for 3 h. After the incubation period, the supernatant was removed, and 50 μL of DMSO was added to each well to solubilize the formazan crystals. The absorbance per well was measured at a wavelength of 550 nm using a microplate reader (Versamax, Molecular Devices, USA). The minimum concentration that inhibited 50% of cell viability (IC50) in the presence of the tested compounds was determined by comparing it with cells cultured without the compounds (considered 100% viable).

The next data set has as its system K-562 cells. In words: Cytotoxic MTT assay, K-562. In kind it is cell-based. As to conditions: Homo sapiens, K562; K-562, MTT, 48 h, mean ± SD of two independent experiments. How it is done: as §2
(Tetrazolium dyes change colour on reduction, which living cells bring about.)

These results are taken from paper PMC11270730, “Isolation and In Vitro Biological Evaluation of Triterpenes from Salacia grandifolia Leaves” (ACS Omega, 2024).

As usually defined, the EC50 is the concentration at which the effect is half-maximal. The low end stands for higher potency in that assay, the high end for lower potency in that assay. What is called IC50 is the concentration needed to halve the response being measured. The low end stands for higher potency, the high end for lower potency.

In the case of `NC(=O)c1ncn([C@@H]2O[C@H](CO)[C@@H](O)[C@H]2O)n1` [ribavirin, reference compound], the CC50 at 72 h in the data set “in vitro” is greater than 100 µM. The EC50 with MHV-3 is less than 10 µM.

Consider `C[C@H]1C(=O)CC[C@@H]2[C@]1(C)CC[C@H]1[C@@]2(C)CC[C@@]2(C)[C@@H]3CC(C)(C)CC[C@]3(C)C[C@H](O)[C@]12C` [Compound 5, 15α-hydroxyfriedelan-3-one], for which the CC50 at 72 h in “in vitro” was greater than 100 µM.

In “in vitro”, `C[C@H]1[C@@H](O)CC[C@@H]2[C@]1(C)CC[C@H]1[C@@]2(C)CC[C@@]2(C)[C@@H]3CC(C)(C)CC[C@]3(C)CC[C@]12C` [Compound 3, friedelan-3β-ol] displayed a CC50 at 72 h greater than 100 µM.

On to `C[C@H]1C(=O)CC[C@@H]2[C@]1(C)CC[C@H]1[C@@]2(C)CC[C@@]2(C)[C@@H]3C[C@](C)(CO)CC[C@]3(C)CC[C@]12C` [Compound 8, 29-hydroxyfriedelan-3-one], for which the CC50 at 72 h in “in vitro” is greater than 100 µM.

With `C[C@H]1C(=O)CC[C@@H]2[C@]1(C)CC[C@H]1[C@@]2(C)CC[C@@]2(C)[C@@H]3C[C@@](C)(CO)CC[C@]3(C)CC[C@]12C` [Compound 7, 30-hydroxyfriedelan-3-one], the CC50 at 72 h in the data set “in vitro” was greater than 100 µM. The IC50 in the data set with THP-1 cells was found to be 385 ± 21 µM; in the data set with K-562 cells it was 361 ± 52 µM.

Take `C[C@H]1C(=O)CC[C@@H]2[C@]1(C)CC[C@H]1[C@@]2(C)CC[C@@]2(C)[C@@H]3CC(C)(C)CC[C@]3(C)CC[C@]12C` [Compound 2, friedelan-3-one]: the CC50 at 72 h in the data set “in vitro” is greater than 100 µM.

In turn, `C[C@H]1C(=O)CC[C@@H]2[C@]1(C)CC[C@H]1[C@@]2(C)CC[C@@]2(C)[C@@H]3CC(C)(C)CC[C@]3(CO)CC[C@]12C` [Compound 6, 28-hydroxyfriedelan-3-one] showed a CC50 at 72 h in “in vitro” greater than 100 µM. The “increase in activity compared to triterpene 1” value in the data set with MHV-3 (MHV-3 antiviral activity, 6 versus 1) is on record as 23 times. Also, in the data set with MHV-3, the response was half-maximal at 2.9 ± 0.3 µM (EC50). Besides, the values for the IC50 in the data set with THP-1 cells and in the data set with K-562 cells were 623 ± 12 µM and 318 ± 41 µM, respectively.

With `CC1C(=O)CCC2C1(C)CCC1C2(C)CCC2(C)C3CC(C)(C)CCC3(CO)CC(=O)C12C` (centres unmarked) [Compound 1, 28-hydroxyfriedelane-3,15-dione], the CC50 at 72 h in “in vitro” is greater than 100 µM. Further, the response in the data set with MHV-3 was half-maximal at 69 ± 6 µM (EC50). For the same compound, the IC50 in the data set on THP-1 cells came out at 539 ± 43 µM; in the data set on K-562 cells it was 259 ± 33 µM.

The compound `C[C@H]1C(=O)CC[C@@H]2[C@]1(C)CC[C@H]1[C@@]2(C)CC[C@@]2(C)[C@@H]3CC(C)(C)CC[C@]3(C)CC(=O)[C@]12C` [Compound 4, friedelane-3,15-dione] displayed a CC50 at 72 h in the data set “in vitro” greater than 100 µM. Besides, the antiviral activity result in the data set on MHV-3 (MHV-3, up to 100 μM) is “no antiviral activity”. For the same compound, the IC50 came to 350 ± 43 µM in the data set on THP-1 cells and 593 ± 44 µM with K-562 cells.

`Nc1ccn([C@@H]2O[C@H](CO)[C@@H](O)[C@@H]2O)c(=O)n1` [cytarabine, reference compound] registered an IC50 in the data set on THP-1 cells of 41 ± 8 µM.
